In patent US9822128B1, “Substituted spirooxindoles” (KING SAUD UNIVERSITY, priority 2017, dated 2017):
Where two headings read alike, the source gives them in different places.

Key:
Vero-B = assay: MTT cytotoxicity assay, normal kidney cell line; assay type: cell-based, African green monkey; details: read-out: VERO-B (IC50% μM)
Protocol: (§1) The cytotoxic activity of the compounds was tested against different mammalian cancer cells, prostate carcinoma cells (PC-3), hepatocellular carcinoma (HepG2) and colon cancer cells (HCT-116) and against African green monkey kidney cell line (Vero-B). The cell lines were obtained from American Type Culture Collection (ATCC). The cells were cultivated at 37° C. and 10% CO2 in DMEM (Lonza, 12-604F) medium supplemented with 10% fetal bovine serum (FBS, Lonza, Cat. No. 14-801E), 100 IU/ml penicillin and 100 μg/ml streptomycin (Lonza, 17-602E). Cisplatin (cis-diamineplatinum (II) dichloride) was used as a positive control and was obtained from Sigma then dissolved in 0.9% saline then stored as 8 mM stock solution at −20° C. The synthesized compounds were solubilized in DMSO and stored at −20° C. 0.5% crystal violet was prepared in Methanol and was used to stain the viable cells (Feoktistova, Geserick et al. 2016). Crystal violet binds to proteins and DNA in the adherent and viable cells so the stain is an indicator for the viability of the treated cells. The viability of the cells were quantified by using MTT reagent (3-(4,5-dimethylthiazol-2-yl)-2,5-diphenyl tetrazolium bromide), which measure the activity of mitochondrial dehydrogenase in the viable cells (Slater, Sawyer et al. 1963, Mosmann 1983).
(§2) Cytotoxicity was further assayed as follows. The cells were seeded in 96-well plate as 5*10^4 cells/mL (100 μL/well). A serial dilutions of tested compounds or cisplatin (100, 30, 10, 3.3, 1.1 or 0.37 μM) was added after overnight incubation of the cells at 37° C. and 5% CO2. DMSO was used as a control (0.1%). The cells were incubated for 48 hrs. After that, 15 μl of MTT (5 mg/mL PBS) was added to each well and incubated for another 4 hours. The formazan crystals were solubilized by 100 μL acidified SDS solution (10% SDS/0.01 M HCl). The absorbance was measured after 14 hours of incubation at 37° C. and 5% CO2 at 570 nm by Biotech plate reader. Each experiment was repeated three times and standard deviation was calculated (±). IC50% was calculated as the concentration that cause 50% inhibition for cell growth. The growth of the cells were monitored and the images were acquired by Gx microscopes (GXMGXD202 Inverted Microscope) (10× Eyepiece) after staining with crystal violet.

HCT-116 = assay: MTT cytotoxicity assay, colon cancer cells; assay type: cell-based, human; details: for SI: Selectivity Index from IC50 normal (VERO-B) and IC50 cancer (HCT-116)
Protocol: as §1, §2

PC-3 = assay: MTT cytotoxicity assay, prostate carcinoma cells; assay type: cell-based, human; details: for SI: Selectivity Index from IC50 normal (VERO-B) and IC50 cancer (PC-3)
Protocol: as §1, §2

HepG2 = assay: MTT cytotoxicity assay, hepatocellular carcinoma cells; assay type: cell-based, human; details: for SI: Selectivity Index from IC50 normal (VERO-B) and IC50 cancer (HepG2)
Protocol: as §1, §2

[1] = Chlorocebus sabaeus, Vero B, Table 1, MTT, 48 hrs incubation
[2] = Homo sapiens, HCT-116, MTT, 48 hrs incubation, read-out: HCT-116 (IC50% μM)
[3] = Homo sapiens, HCT-116, MTT, 48 hrs incubation, read-out: HCT-116 (IC50% μg/ml)
[4] = Homo sapiens, HepG2, MTT, 48 hrs incubation, read-out: HepG2 (IC50% μM)
[5] = Homo sapiens, HepG2, MTT, 48 hrs incubation, read-out: HepG2 (IC50% μg/ml)
[6] = Homo sapiens, PC-3, MTT, 48 hrs incubation, read-out: PC-3 (IC50% μM)
[7] = Homo sapiens, PC-3, MTT, 48 hrs incubation, read-out: PC-3 (IC50% μg/ml)
[8] = Chlorocebus sabaeus, Vero B, 48 h
[9] = Homo sapiens, HCT-116, 48 h, read-out: HCT-116 (IC50% μM), MTT, 48 hrs incubation
[10] = Homo sapiens, HCT-116, 48 h, read-out: HCT-116 (IC50% μg/ml), MTT, 48 hrs incubation
[11] = read-out: HCT-116 (IC50% μM), MTT, 48 hrs incubation

Structure (SMILES)	SI (HCT-116)	SI (PC-3)	SI (HepG2)	IC50 (Vero-B; [1])	IC50 (HCT-116; [2])	IC50 (HCT-116; [3])	IC50 (HepG2; [4])	IC50 (HepG2; [5])	IC50 (PC-3; [6])	IC50 (PC-3; [7])	further results
N.N.[Cl][Pt][Cl] [Cisplatin, cis-diamineplatinum (II) dichloride, reference compound]	0.3968	1	0.9091	–	–	–	–	–	–	–	IC50 (Vero-B; Table 1, MTT, 48 hrs incubation): 5 µM; IC50 (Vero-B; Table 2, MTT, 48 hrs incubation): 5 µM; IC50 (Vero-B; Table 3, MTT, 48 hrs incubation): 5 µM; HCT-116 (IC50% μg/ml) (HCT-116; MTT, 48 hrs incubation): 3.8 µg/mL; IC50 (HCT-116; MTT, 48 hrs incubation, read-out: HCT-116 (IC50% μM)): 12.6 ± 2 µM; PC-3 (IC50% μg/ml) (PC-3; MTT, 48 hrs incubation): 1.5 µg/mL; IC50 (PC-3; MTT, 48 hrs incubation, read-out: PC-3 (IC50% μM)): 5 ± 0.5 µM; HepG2 (IC50% μg/ml) (HepG2; MTT, 48 hrs incubation): 1.7 µg/mL; IC50 (HepG2; MTT, 48 hrs incubation, read-out: HepG2 (IC50% μM)): 5.5 ± 1 µM
Cc1ccc(/C=C/C(=O)[C@H]2[C@H](c3ccc(C)cc3)[C@H]3CSCN3[C@]23C(=O)Nc2ccccc23)cc1 [Compound 4b, (3R,6′S,7′R,7a′S)-7′-(p-tolyl)-6′-((E)-3-(p-tolyl)acryloyl)-1′,6′,7′,7a′-tetrahydro-3′H-spiro[indoline-3,5′-pyrrolo[1,2-c]thiazol]-2-one]	1.475	–	3.305	11.8 µM	8 ± 1.2 µM	3.8 µg/mL	3.57 ± 0.5 µM	1.7 µg/mL	–	–	–
O=C(/C=C/c1ccc(Cl)cc1)[C@H]1[C@H](c2ccc(Cl)cc2)[C@H]2CSCN2[C@]12C(=O)Nc1ccccc12 [Compound 4c, (3R,6′S,7′R,7a′S)-7′-(4-chlorophenyl)-6′-((E)-3-(4-chlorophenyl)acryloyl)-1′,6′,7′,7a′-tetrahydro-3′H-spiro[indoline-3,5′-pyrrolo[1,2-c]thiazol]-2-one]	–	2.593	3.5	7 µM	3 ± 0.5 µM	1.6 µg/mL	2 ± 0.5 µM	1 µg/mL	2.7 ± 0.4 µM	1.4 µg/mL	–
O=C(/C=C/c1c(Cl)cccc1Cl)[C@H]1[C@H](c2c(Cl)cccc2Cl)[C@H]2CSCN2[C@]12C(=O)Nc1ccccc12 [Compound 4e, (3R,6′S,7′R,7a′S)-7′-(2,6-dichlorophenyl)-6′-((E)-3-(2,6-dichlorophenyl)acryloyl)-1′,6′,7′,7a′-tetrahydro-3′H-spiro[indoline-3,5′-pyrrolo[1,2-c]thiazol]-2-one]	1	–	3	3 µM	3 ± 0.3 µM	1.8 µg/mL	1 ± 0.3 µM	0.6 µg/mL	–	–	–
O=C(/C=C/c1ccc(Br)cc1)[C@H]1[C@H](c2ccc(Br)cc2)[C@H]2CSCN2[C@]12C(=O)Nc1ccccc12 [Compound 4f, (3R,6′S,7′R,7a′S)-7′-(4-bromophenyl)-6′-((E)-3-(4-bromophenyl)acryloyl)-1′,6′,7′,7a′-tetrahydro-3′H-spiro[indoline-3,5′-pyrrolo[1,2-c]thiazol]-2-one]	1	–	3.75	3 µM	3 ± 0.5 µM	1.8 µg/mL	0.8 ± 0.1 µM	0.5 µg/mL	–	–	–
O=C(/C=C/c1cccc([N+](=O)[O-])c1)[C@H]1[C@H](c2cccc([N+](=O)[O-])c2)[C@H]2CSCN2[C@]12C(=O)Nc1ccccc12 [Compound 4g]	1	–	–	–	–	–	–	–	–	–	IC50 (Vero-B; [8]): 2.5 µM; IC50 (HCT-116; [9]): 2.5 ± 0.2 µM; IC50 (HCT-116; [10]): 1.4 µg/mL
COc1ccc(/C=C/C(=O)[C@H]2[C@H](c3ccc(OC)cc3)[C@H]3CSCN3[C@]23C(=O)Nc2ccccc23)cc1 [Compound 4h, (3R,6′S,7′R,7a′S)-7′-(4-methoxyphenyl)-6′-((E)-3-(4-methoxyphenyl)acryloyl)-1′,6′,7′,7a′-tetrahydro-3′H-spiro[indoline-3,5′-pyrrolo[1,2-c]thiazol]-2-one]	1.071	–	3.333	7.5 µM	7 ± 0.9 µM	3.6 µg/mL	2.25 ± 0.2 µM	1.1 µg/mL	–	–	–
O=C(/C=C/c1ccc2ccccc2c1)[C@H]1[C@H](c2ccc3ccccc3c2)[C@H]2CSCN2[C@]12C(=O)Nc1ccccc12 [Compound 4i, (3R,6′S,7′R,7a′S)-7′-(naphthalen-2-yl)-6′-((E)-3-(naphthalen-2-yl)acryloyl)-1′,6′,7′,7a′-tetrahydro-3′H-spiro[indoline-3,5′-pyrrolo[1,2-c]thiazol]-2-one]	0.875	2.414	2.917	7 µM	8 ± 0.3 µM	4.4 µg/mL	2.4 ± 1 µM	1.3 µg/mL	2.9 ± 0.2 µM	1.6 µg/mL	–
O=C(/C=C/c1cccs1)[C@H]1[C@H](c2cccs2)[C@H]2CSCN2[C@]12C(=O)Nc1ccccc12 [Compound 4j, (3R,6′S,7′S,7a′S)-7′-(thiophen-2-yl)-6′-((E)-3-(thiophen-2-yl)acryloyl)-1′,6′,7′,7a′-tetrahydro-3′H-spiro[indoline-3,5′-pyrrolo[1,2-c]thiazol]-2-one]	1.241	–	–	–	–	–	–	–	–	–	IC50 (Vero-B; [8]): 18 µM; IC50 (HCT-116; [9]): ≥ 10 µM; IC50 (HCT-116; [10]): 6.7 µg/mL; IC50 (HCT-116; [11]): 14.5 ± 1.5 µM
O=C(/C=C/c1ccco1)[C@H]1[C@H](c2ccco2)[C@H]2CSCN2[C@]12C(=O)Nc1ccccc12 [Compound 4k, (3R,6′S,7′S,7a′S)-7′-(furan-2-yl)-6′-((E)-3-(furan-2-yl)acryloyl)-1′,6′,7′,7a′-tetrahydro-3′H-spiro[indoline-3,5′-pyrrolo[1,2-c]thiazol]-2-one]	1.316	–	–	–	–	–	–	–	–	–	IC50 (Vero-B; [8]): 25 µM; IC50 (HCT-116; [9]): ≥ 10 µM; IC50 (HCT-116; [10]): 10.1 µg/mL; IC50 (HCT-116; [11]): 19 ± 2 µM
O=C(/C=C/c1cccc(Br)c1)[C@H]1[C@H](c2cccc(Br)c2)[C@H]2CSCN2[C@]12C(=O)Nc1ccccc12 [Compound 4l, (3R,6′S,7′R,7a′S)-7′-(3-bromophenyl)-6′-((E)-3-(3-bromophenyl)acryloyl)-1′,6′,7′,7a′-tetrahydro-3′H-spiro[indoline-3,5′-pyrrolo[1,2-c]thiazol]-2-one]	1.911	2	3.333	3 µM	1.57 ± 0.3 µM	0.95 µg/mL	0.9 ± 0.1 µM	0.5 µg/mL	1.5 ± 0.5 µM	0.9 µg/mL	–
O=C(/C=C/c1ccc(F)cc1)[C@H]1[C@H](c2ccc(F)cc2)[C@H]2CSCN2[C@]12C(=O)Nc1ccccc12 [Compound 4m, (3R,6′S,7′R,7a′S)-7′-(4-fluorophenyl)-6′-((E)-3-(4-fluorophenyl)acryloyl)-1′,6′,7′,7a′-tetrahydro-3′H-spiro[indoline-3,5′-pyrrolo[1,2-c]thiazol]-2-one]	1.2	2.4	2.5	6 µM	5 ± 0.3 µM	2.4 µg/mL	2.4 ± 0.4 µM	1.2 µg/mL	2.5 ± 0.2 µM	1.2 µg/mL	–
O=C(/C=C/c1ccc(C(F)(F)F)cc1)[C@H]1[C@H](c2ccc(C(F)(F)F)cc2)[C@H]2CSCN2[C@]12C(=O)Nc1ccccc12 [Compound 4n, (3R,6′S,7′R,7a′S)-7′-(4-(trifluoromethyl)phenyl)-6′-((E)-3-(4-(trifluoromethyl)phenyl)acryloyl)-1′,6′,7′,7a′-tetrahydro-3′H-spiro[indoline-3,5′-pyrrolo[1,2-c]thiazol]-2-one]	0.8621	2.5	2.778	2.5 µM	2.9 ± 0.4 µM	1.7 µg/mL	0.9 ± 0.2 µM	0.5 µg/mL	1 ± 0.2 µM	0.6 µg/mL	–
